Test results as given in PMC11881561 (Antimicrobial Agents and Chemotherapy, 2025).
Values after ≈ are worked out from the molar mass of the structure shown.

Legend:
[1] = molecular target: T1, KPC-3^D179Y/T243M (Klebsiella pneumoniae, UniProt Q9F663, D178Y/H272Y/T242M); experiment: Inhibition kinetics (CENTA hydrolysis, jump dilution), KPC-3 D179Y/T243M; format: biochemical
Procedure: (§1) Measurements to determine kinetic parameters for hydrolysis, and kinetic parameters for inhibition were performed at ambient temperature in PBS (pH 7.4) containing 0.1 mg/mL bovine serum albumin, using a PowerWaveXS plate reader (BioTek).
(§2) Second-order rate constants (k2/K) denoting the inactivation efficiency of BLIs were determined by continuously measuring CENTA (100 µM) hydrolysis ([28]) in the presence of various concentrations of BLI. Progress curves were fit to equation 3 using GraphPad Prism, where Ai and A0 are the measured and basal absorbance, vi and vs are initial and final velocity, and t is time in seconds. k2/K was derived with equation 4. Koff was determined by the jump dilution method ([24]). Kd was estimated from the ratio between koff and k2/K.
(§3) (3) Ai=A0+vst(vi-vs)[1-e^-(kobs)t/kobs]
(§4) (4) kobs=k-2+(k2/KI)[I]/1+[S]/KM

[2] = molecular target: T2, KPC-3^D179Y (Klebsiella pneumoniae, UniProt Q9F663, D178Y/H272Y); experiment: Inhibition kinetics (CENTA hydrolysis, jump dilution), KPC-3 D179Y; format: biochemical
Procedure: as §1, §2, §3, §4

[3] = molecular target: T3, KPC-2 WT (Klebsiella pneumoniae, UniProt Q9F663); format: biochemical
Procedure: as §1, §2, §3, §4

[4] = molecular target: T4, KPC-3^V240G (Klebsiella pneumoniae, UniProt Q9F663, H272Y/V239G); experiment: Inhibition kinetics (CENTA hydrolysis, jump dilution), KPC-3 V240G; format: biochemical
Procedure: as §1, §2, §3, §4

[5] = molecular target: T5, KPC-3 WT (Klebsiella pneumoniae, UniProt Q9F663, H272Y); experiment: Inhibition kinetics (CENTA hydrolysis, jump dilution), KPC-3 wt; format: biochemical
Procedure: as §1, §2, §3, §4

[6] = molecular target: T6, KPC-2^D179Y/T243M (Klebsiella pneumoniae, UniProt Q9F663, D178Y/T242M); experiment: Inhibition kinetics (CENTA hydrolysis, jump dilution), KPC-2 D179Y/T243M; format: biochemical; conditions: KPC-2 D179Y/T243M
Procedure: as §1, §2, §3, §4

[7] = molecular target: T7, KPC-2^V240G (Klebsiella pneumoniae, UniProt Q9F663, V239G); experiment: Inhibition kinetics (CENTA hydrolysis, jump dilution), KPC-2 V240G; format: biochemical
Procedure: as §1, §2, §3, §4

[8] = molecular target: T8, KPC-2^D179Y (Klebsiella pneumoniae, UniProt Q9F663, D178Y); experiment: Inhibition kinetics (CENTA hydrolysis, jump dilution), KPC-2 D179Y; format: biochemical; conditions: KPC-2 D179Y
Procedure: as §1, §2, §3, §4

[9] = molecular target: T1, KPC-3^D179Y/T243M; experiment: β-lactam hydrolysis kinetics, purified KPC-3 D179Y/T243M; format: biochemical; conditions: substrate hydrolysis by KPC-3 D179Y/T243M
Procedure: as §1
(§5) Assays to determine Michaelis-Menten kinetic parameters were performed by mixing variable amounts of enzymes (depending on the enzyme-substrate pair), with serial dilutions of different BL substrates and continuously monitoring the reduction in absorbance associated with BL hydrolysis ([28], [36], [40], [41]). Kinetic parameters were determined by plotting initial rates of hydrolysis (v) as a function of substrate concentration [S] and fitting the data to equation 1 using GraphPad Prism,
(§6) (1) v=[Et]×kcat×[S]/KM+[S]
(§7) where [Et] is the enzyme concentration, kcat the turnover number and KM the Michaelis constant.

[10] = molecular target: T3, KPC-2 WT; conditions: substrate hydrolysis by KPC-2 WT
[11] = molecular target: T4, KPC-3^V240G; format: biochemical
[12] = molecular target: T2, KPC-3^D179Y; experiment: β-lactam hydrolysis kinetics, purified KPC-3 D179Y; format: biochemical; conditions: substrate hydrolysis by KPC-3 D179Y
Procedure: as §1, §5, §6, §7

[13] = molecular target: T6, KPC-2^D179Y/T243M; experiment: β-lactam hydrolysis kinetics, purified KPC-2 D179Y/T243M; format: biochemical; conditions: substrate hydrolysis by KPC-2 D179Y/T243M
Procedure: as §1, §5, §6, §7

[14] = molecular target: T5, KPC-3 WT; format: biochemical; conditions: substrate hydrolysis by KPC-3 WT
[15] = molecular target: T8, KPC-2^D179Y; experiment: β-lactam hydrolysis kinetics, purified KPC-2 D179Y; format: biochemical; conditions: substrate hydrolysis by KPC-2 D179Y
Procedure: as §1, §5, §6, §7

[16] = molecular target: T7, KPC-2^V240G; format: biochemical
[17] = tested on: engineered E. coli strain expressing KPC-2^V240G; experiment: microbe, parasite or virus in culture; format: cell-based; conditions: Escherichia coli, BLIs at fixed 4 μg/mL
[18] = tested on: engineered E. coli strain expressing KPC-3^V240G; experiment: microbe, parasite or virus in culture; format: cell-based; conditions: Escherichia coli, BLIs at fixed 4 μg/mL
[19] = tested on: engineered E. coli strain expressing KPC-2 wt; experiment: microbe, parasite or virus in culture; format: cell-based; conditions: Escherichia coli; KPC-2 wt strain; BLIs at fixed 4 μg/mL
[20] = tested on: E. coli strains expressing KPC-2^D179Y or KPC-2^D179Y/T243M; experiment: microbe, parasite or virus in culture; format: cell-based; conditions: Escherichia coli
[21] = tested on: engineered E. coli strain expressing KPC-3 wt; experiment: microbe, parasite or virus in culture; format: cell-based; conditions: Escherichia coli; KPC-3 wt strain; BLIs at fixed 4 μg/mL
[22] = tested on: engineered E. coli strain expressing KPC-3^D179Y/T243M; experiment: microbe, parasite or virus in culture; format: cell-based; conditions: Escherichia coli, BLIs at fixed 4 μg/mL
[23] = tested on: engineered E. coli strain expressing KPC-3^D179Y; experiment: microbe, parasite or virus in culture; format: cell-based; conditions: Escherichia coli, BLIs at fixed 4 μg/mL
[24] = tested on: engineered E. coli strain expressing KPC-2^D179Y/T243M; experiment: microbe, parasite or virus in culture; format: cell-based; conditions: Escherichia coli, BLIs at fixed 4 μg/mL
[25] = tested on: E. coli control strain lacking a β-lactamase; experiment: microbe, parasite or virus in culture; format: cell-based; conditions: Escherichia coli, no KPC expressed, BLIs at fixed 4 μg/mL
[26] = tested on: engineered E. coli strain expressing KPC-2^D179Y; experiment: microbe, parasite or virus in culture; format: cell-based; conditions: Escherichia coli, BLIs at fixed 4 μg/mL

T7 sequence (Q9F663 25-293 V239G): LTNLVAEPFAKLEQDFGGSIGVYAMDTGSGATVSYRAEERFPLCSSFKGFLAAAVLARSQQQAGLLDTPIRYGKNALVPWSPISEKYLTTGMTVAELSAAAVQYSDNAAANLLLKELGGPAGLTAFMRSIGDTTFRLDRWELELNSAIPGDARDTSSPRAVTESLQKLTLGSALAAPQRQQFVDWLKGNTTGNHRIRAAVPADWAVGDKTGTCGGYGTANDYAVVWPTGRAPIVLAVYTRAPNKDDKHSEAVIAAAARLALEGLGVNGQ
T8 sequence (Q9F663 25-293 D178Y): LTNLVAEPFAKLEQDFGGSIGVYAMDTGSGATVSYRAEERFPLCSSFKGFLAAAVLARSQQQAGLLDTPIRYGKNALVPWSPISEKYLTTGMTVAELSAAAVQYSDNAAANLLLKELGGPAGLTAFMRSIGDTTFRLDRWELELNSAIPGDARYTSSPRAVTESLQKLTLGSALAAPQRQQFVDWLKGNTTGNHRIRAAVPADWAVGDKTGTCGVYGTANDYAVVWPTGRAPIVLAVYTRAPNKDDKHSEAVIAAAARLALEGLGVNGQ
T3 sequence (Q9F663 25-293 limits assumed): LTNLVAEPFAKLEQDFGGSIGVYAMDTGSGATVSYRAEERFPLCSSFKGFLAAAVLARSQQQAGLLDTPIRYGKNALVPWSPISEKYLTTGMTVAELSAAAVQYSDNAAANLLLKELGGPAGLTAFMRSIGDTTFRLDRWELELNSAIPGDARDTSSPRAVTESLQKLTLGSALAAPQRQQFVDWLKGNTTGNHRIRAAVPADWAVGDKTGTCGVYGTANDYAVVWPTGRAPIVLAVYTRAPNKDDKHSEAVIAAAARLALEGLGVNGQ
T5 sequence (Q9F663 27-293 H272Y): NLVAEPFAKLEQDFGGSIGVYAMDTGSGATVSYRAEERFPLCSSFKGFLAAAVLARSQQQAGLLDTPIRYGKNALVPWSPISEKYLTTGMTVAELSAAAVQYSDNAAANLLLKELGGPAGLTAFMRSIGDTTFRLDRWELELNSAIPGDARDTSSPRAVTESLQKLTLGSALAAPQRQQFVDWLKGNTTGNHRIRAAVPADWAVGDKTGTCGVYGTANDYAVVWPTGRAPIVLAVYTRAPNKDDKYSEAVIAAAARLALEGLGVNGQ
T6 sequence (Q9F663 25-293 D178Y/T242M): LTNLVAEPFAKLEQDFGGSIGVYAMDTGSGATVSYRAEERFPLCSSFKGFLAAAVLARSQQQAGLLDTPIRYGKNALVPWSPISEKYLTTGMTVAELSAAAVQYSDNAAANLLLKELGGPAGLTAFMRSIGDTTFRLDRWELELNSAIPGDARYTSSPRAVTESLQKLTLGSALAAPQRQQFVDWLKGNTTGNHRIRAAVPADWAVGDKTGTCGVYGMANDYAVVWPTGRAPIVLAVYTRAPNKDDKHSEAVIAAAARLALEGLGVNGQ
T2 sequence (Q9F663 27-293 D178Y/H272Y): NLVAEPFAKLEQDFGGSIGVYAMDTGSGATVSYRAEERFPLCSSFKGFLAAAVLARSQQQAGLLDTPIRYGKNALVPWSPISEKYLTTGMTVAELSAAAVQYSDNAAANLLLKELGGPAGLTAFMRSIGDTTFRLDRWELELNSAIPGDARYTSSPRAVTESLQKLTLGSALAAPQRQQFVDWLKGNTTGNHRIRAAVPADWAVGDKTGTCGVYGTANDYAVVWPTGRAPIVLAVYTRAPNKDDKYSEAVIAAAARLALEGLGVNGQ
T1 sequence (Q9F663 27-293 D178Y/T242M/H272Y): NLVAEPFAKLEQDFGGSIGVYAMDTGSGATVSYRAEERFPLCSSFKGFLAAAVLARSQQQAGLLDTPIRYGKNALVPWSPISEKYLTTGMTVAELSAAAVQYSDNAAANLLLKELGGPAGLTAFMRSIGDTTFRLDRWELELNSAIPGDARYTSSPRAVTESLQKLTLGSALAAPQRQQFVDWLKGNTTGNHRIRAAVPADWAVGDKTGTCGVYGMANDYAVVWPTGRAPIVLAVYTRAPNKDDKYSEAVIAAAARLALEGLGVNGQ
T4 sequence (Q9F663 27-293 V239G/H272Y): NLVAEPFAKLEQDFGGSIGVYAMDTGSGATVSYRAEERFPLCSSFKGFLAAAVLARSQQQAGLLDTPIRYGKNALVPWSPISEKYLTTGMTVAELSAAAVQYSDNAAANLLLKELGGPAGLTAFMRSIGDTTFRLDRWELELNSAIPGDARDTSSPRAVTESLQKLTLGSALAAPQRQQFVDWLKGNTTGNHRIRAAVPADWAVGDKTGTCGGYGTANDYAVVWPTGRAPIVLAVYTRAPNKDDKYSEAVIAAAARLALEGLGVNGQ

Compound: NC(=O)[C@@H]1CC[C@@H]2CN1C(=O)N2OS(=O)(=O)O [AVI, avibactam]
- t1/2 [1]: 22.5 ± 3.5 min
- t1/2 [2]: 12.8 ± 0.9 min
- t1/2 [3]: 21.4 ± 0.07 min
- t1/2 [4]: 10.7 ± 0.1 min
- t1/2 [5]: 10.1 ± 0.1 min
- t1/2 [6]: 198 ± 8 min
- t1/2 [7]: 21.5 ± 0.06 min
- t1/2 [8]: 205 ± 10 min

Compound: O=C(Cc1cccs1)N[C@@H]1C(=O)N2C(C(=O)O)=C(CSc3ccc([N+](=O)[O-])c(C(=O)O)c3)CS[C@H]12 [CENTA]
- Km [9]: 153 ± 25 µM
- kcat [9]: 0.18 ± 0.02 s⁻¹
- kcat [10]: 243 ± 11 s⁻¹
- Km ([10]; PBS pH 7.4): 19.7 ± 1.3 µM
- Km [11]: 54.8 ± 8.3 µM
- kcat [11]: 12.7 ± 1.1 s⁻¹
- Km [12]: 124 ± 17 µM
- kcat [12]: 0.24 ± 0.02 s⁻¹
- Km [13]: 2.1 ± 0.3 µM
- kcat [13]: (0.9 ± 0.04) × 10^−2 s^−1
- Km [14]: 105 ± 24 µM
- kcat [14]: 38 ± 3.4 s⁻¹
- Km [15]: 1.9 ± 0.2 µM
- kcat [15]: (1.2 ± 0.08) × 10^−2 s^−1
- Km [16]: 63.3 ± 2.3 µM
- kcat [16]: 662 ± 9.6 s⁻¹

Compound: CC(C)(O/N=C(\C(=O)N[C@@H]1C(=O)N2C(C(=O)[O-])=C(C[n+]3ccccc3)CS[C@H]12)c1csc(N)n1)C(=O)O [CAZ, ceftazidime]
- MIC [17]: > 256 µg/mL
- MIC [18]: > 256 µg/mL
- MIC [19]: 64 µg/mL (≈ 117 µM)
- MIC [20]: > 256 µg/mL
- MIC [21]: 256 µg/mL (≈ 468 µM)
- MIC [22]: > 256 µg/mL
- MIC [23]: > 256 µg/mL
- MIC [24]: > 256 µg/mL
- MIC [25]: 0.5 µg/mL (≈ 0.915 µM)
- MIC [26]: > 256 µg/mL
